Patent publication US20250017912A1, “METHODS FOR DOWN-REGULATION AND UP-REGULATION OF PATHWAYS” (MedRegen, LLC, priority 2023, published 2025)
Like-named read-outs stand apart in the source and are kept apart here.

Tests used:
[1] = in vivo
clinical = conditions: human, in vivo
CD34+HSCs = conditions: cited from earlier work
[2] = test system: cell migration stimulated by CXCL12; conditions: cited from earlier work
[3] = Tacrolimus whole blood pharmacokinetics (LC-MS-MS) after SC Composition A; type: in vivo, human; conditions: for Tacrolimus blood trough levels: 0.01 ml/kg dose group; for AUC / Cmax / Tmax / half-life: human, whole blood; for AUC: read-out: Tacrolimus AUCtau (GM); for Cmax: read-out: Tacrolimus Cmax (GM)
Experimental: Tacrolimus. Blood samples were obtained from all subjects in parallel as for plerixafor. Whole blood from each sample was stored in −80° C. condition until shipment. The analysis of K2EDTA whole blood for the quantitation of tacrolimus using a validated method by LC-MS-MS was performed by Worldwide Clinical Trials, Bioanalytical Services (Austin, TX, USA) in compliance with principles of GLP standards as referenced above.
Study data were collected and similar pharmacokinetic parameters as above were calculated using Analyst® (Version 1.4.2 or 1.6.1, Applied Biosystems/MDS Sciex) and evaluated with Watson Laboratory Information Management System™ (LIMS; Version 7.2.0.03, Thermo Fisher Scientific) software.

[4] = sc, 0.005 mL/kg, Composition A 0.005 mL/kg SC QAD, Day 5
[5] = sc, 0.005 mL/kg, Composition A 0.005 mL/kg SC, Day 1
[6] = sc, 0.01 mL/kg, Composition A 0.01 mL/kg SC QAD, Day 5
[7] = sc, 0.01 mL/kg, Composition A 0.01 mL/kg SC, Day 1
[8] = sc, 0.02 mL/kg, Composition A 0.02 mL/kg SC QAD, Day 5
[9] = sc, 0.02 mL/kg, Composition A 0.02 mL/kg SC, Day 1

With `c1cc(CN2CCCNCCNCCCNCC2)ccc1CN1CCCNCCNCCCNCC1` [Plerixafor, 1,1′-[1,4-phenylenebis(methylene)]bis-1,4,8,11-tetraazacyclo-tetradecane] the “Plerixafor median time to Cmax” value ([1]; human) was 1 to 3 h, the Plerixafor elimination ([1]; human, 48 h) was “fully eliminated at 48 hours” and the “Plerixafor Cmax and AUC versus dose” value [1] was “increased in a dose-proportional manner”. The half-life (clinical; Plerixafor geometric mean t1/2) was 3 to 6 h, the half-life (clinical; sc, Plerixafor t1/2 (GM)) was 3.29 h and the “Peak CD34+” value (CD34+HSCs; high dose plerixafor (0.48 mg/kg)) was 32.2 c/μL. The “CD34+HSCs mobilized at peak levels” value (CD34+HSCs; normal dose of plerixafor (0.24 mg/kg)) was 27.8 µL⁻¹ and the IC50 [2] was 51 ± 17 nM.

In the case of `C=CC[C@@H]1/C=C(\C)C[C@H](C)C[C@H](OC)[C@H]2O[C@@](O)(C(=O)C(=O)N3CCCC[C@H]3C(=O)O[C@H](/C(C)=C/[C@@H]3CC[C@@H](O)[C@H](OC)C3)[C@H](C)[C@@H](O)CC1=O)[C@H](C)C[C@@H]2OC` [Tacrolimus], the “Tacrolimus blood trough levels” value ([3]; day 1) is reported as “less than 2 ng/ml”, the “Tacrolimus blood trough levels” value ([3]; day 5) is reported as less than 3 ng/mL and the “Tacrolimus Cmax and AUC versus dose” value ([3]; Composition A 0.005, 0.01, 0.02 mL/kg, Day 1 and QAD for 5 days) is reported as “increased in a dose-proportional manner”. For the same compound, the “Tacrolimus Ctrough (GM)” value ([3]; Composition A 0.005 mL/kg SC QAD, Day 5) was 0.88 ng/mL, the “Tacrolimus Ctrough (GM)” value ([3]; Composition A 0.005 mL/kg SC, Day 1) was 0.57 ng/mL and the “Tacrolimus median Ctrough” value ([3]; Composition A 0.005 mL/kg, Day 1) was 0.58 ng/mL. For the same compound, the “Tacrolimus Ctrough” value ([3]; Composition A 0.005 mL/kg, Day 5) was 0.90 ng/mL, the “Tacrolimus Ctrough (GM)” value ([3]; Composition A 0.01 mL/kg SC QAD, Day 5) was 1.89 ng/mL and the “Tacrolimus Ctrough (GM)” value ([3]; Composition A 0.01 mL/kg SC, Day 1) was 1.45 ng/mL. The “Tacrolimus median Ctrough” value ([3]; Composition A 0.01 mL/kg, Day 1) was 1.48 ng/mL, the “Tacrolimus Ctrough” value ([3]; Composition A 0.01 mL/kg, Day 5) was 1.99 ng/mL and the “Tacrolimus Ctrough (GM)” value ([3]; Composition A 0.02 mL/kg SC QAD, Day 5) was 2.94 ng/mL. The “Tacrolimus Ctrough (GM)” value ([3]; Composition A 0.02 mL/kg SC, Day 1) was 2.12 ng/mL, the “Tacrolimus median Ctrough” value ([3]; Composition A 0.02 mL/kg, Day 1) was 2.24 ng/mL and the “Tacrolimus Ctrough” value ([3]; Composition A 0.02 mL/kg, Day 5) was 3.19 ng/mL. It also gave an AUC [3, 4] of 70.1 ng·h/mL, a Cmax [3, 4] of 2.09 ng/mL and a Tmax ([3]; sc, 0.005 mL/kg, Composition A 0.005 mL/kg SC QAD, Day 5, read-out: Tacrolimus Tmax (Median)) of 10 h. It also gave a half-life ([3]; sc, 0.005 mL/kg, Composition A 0.005 mL/kg SC QAD, Day 5, read-out: Tacrolimus t1/2 (GM) (converted)) of 24.9 h, an AUC [3, 5] of 46.4 ng·h/mL and a Cmax [3, 5] of 1.47 ng/mL. For the same compound, the Tmax ([3]; sc, 0.005 mL/kg, Composition A 0.005 mL/kg SC, Day 1, read-out: Tacrolimus Tmax (Median)) was 7.5 h, the half-life ([3]; sc, 0.005 mL/kg, Composition A 0.005 mL/kg SC, Day 1, read-out: Tacrolimus t1/2 (GM) (converted)) was 23.8 h and the AUC [3, 6] was 171 ng·h/mL. The Cmax [3, 6] was 5.37 ng/mL, the Tmax ([3]; sc, 0.01 mL/kg, Composition A 0.01 mL/kg SC QAD, Day 5, read-out: Tacrolimus Tmax (Median)) was 5.5 h and the half-life ([3]; sc, 0.01 mL/kg, Composition A 0.01 mL/kg SC QAD, Day 5, read-out: Tacrolimus t1/2 (GM) (converted)) was 29.5 h. The AUC [3, 7] was 105 ng·h/mL, the Cmax [3, 7] was 3.15 ng/mL and the Tmax ([3]; sc, 0.01 mL/kg, Composition A 0.01 mL/kg SC, Day 1, read-out: Tacrolimus Tmax (Median)) was 12 h. For the same compound, the half-life ([3]; sc, 0.01 mL/kg, Composition A 0.01 mL/kg SC, Day 1, read-out: Tacrolimus t1/2 (GM) (converted)) was 37.8 h, the AUC [3, 8] was 237 ng·h/mL and the Cmax [3, 8] was 7.91 ng/mL. It also gave a Tmax ([3]; sc, 0.02 mL/kg, Composition A 0.02 mL/kg SC QAD, Day 5, read-out: Tacrolimus Tmax (Median)) of 2 h, a half-life ([3]; sc, 0.02 mL/kg, Composition A 0.02 mL/kg SC QAD, Day 5, read-out: Tacrolimus t1/2 (GM) (converted)) of 30.6 h and an AUC [3, 9] of 152 ng·h/mL. For the same compound, the Cmax [3, 9] was 4.49 ng/mL, the Tmax ([3]; sc, 0.02 mL/kg, Composition A 0.02 mL/kg SC, Day 1, read-out: Tacrolimus Tmax (Median)) was 8.01 h and the half-life ([3]; sc, 0.02 mL/kg, Composition A 0.02 mL/kg SC, Day 1, read-out: Tacrolimus t1/2 (GM) (converted)) was 36.4 h. For the same compound, the half-life ([3]; subcutaneous, Composition A 0.005, 0.01, 0.02 mL/kg, Days 1 and 5, read-out: Tacrolimus GM t1/2) was 24 to 38 h, the Tmax ([3]; subcutaneous, single dose Day 1 and QAD dosing for 5 days, all doses, read-out: Tacrolimus median Tmax) was 2 to 12 h and the “Mean tacrolimus trough levels” value ([3]; intermediate dose of MRG-001 (0.01 mL/kg)) was 1.8 ng/mL. For the same compound, the “Mean tacrolimus trough levels” value ([3]; lowest dose of MRG-001 (0.005 ml/kg)) was 0.8 ng/mL and the “Peak levels of tacrolimus” value ([3]; middle dose cohort (FIG. 1C)) was 2 to 3 ng/mL.
